Results as given in patent publication US20230332103A1, “Methods and Compositions for Generating Human Forebrain Neural Progenitor Cells and for Maturation Thereof to Parvalbumin+ Interneurons” (Trailhead Biosystems Inc., priority 2021, published 2023).

What was measured:
[1] = tested on: stage 4 neural stem cells; assay: HD-DoE 8-factor experiment for stage 5 recipe (Forskolin, Arachidonic acid, VPA, BDNF, BT13, O-LPA, GW7646, Sodium pyruvate), optimized for PVALB; assay type: cell-based, human; details: for impact on expression of PVALB: dynamic profile analysis, FIG. 26; for factor contribution on expression of PVALB: positive, model optimized for maximum expression of PVALB, FIG. 25
Method: To further guide the differentiation of forebrain-committed neural stem cells to PVALB interneuron cells, an additional HD-DoE experiment was performed for 3 days on cells that were treated with stage 1 to stage 4 media for total of 12 days prior to start of the experiment. This experiment included 8 effectors, Forskolin, Arachidonic acid, VPA, BDNF, BT13, O-LPA, GW7646, and Sodium pyruvate. In this model, we focused on maximum expression of PVALB gene expressed in PVALB (+) interneurons (Nahar et al. (2021) Front. Psych. 12:679960). When the model was optimized for maximum expression of PVALB, Forskolin, GW7646, Sodium Pyruvate had the highest factor contributions, 3.14, 27.2, and 17.1 respectively (FIG. 25).
So, it was excluded in the recipe.

[2] = tested on: stage 4 neural stem cells; assay: factor criticality analysis of stage 5 recipe; assay type: cell-based, human; details: FIG. 28-30
Method: To assess the impact of elimination of each validated factor, we again used dynamic profile analysis and compared the expression level of genes of interest in the absence of each finalized factor while others are present.
In the stage 5 recipe, each of seven finalized factors were removed while other factors were kept present and expression levels of PVALB and SST were assessed compared to the presence of all seven factors. […] 2-phospho-L-ascorbic acid, BDNF, IGF-1 were included in the stage 5 recipe (FIG. 28). […] Others were also found to increase the expression of somatostatin that was SST interneuron marker. So, they are excluded from the recipe and N2 was included in the stage 5 recipe (FIG. 29). […] Sodium pyruvate was included in the stage 5 recipe (FIG. 30).

Row | SMILES | impact on expression of PVALB [1] | factor contribution on expression of PVALB [1] | impact on expression of PVALB ([1]; listed as sodium pyruvate) | contribution to expression of PVALB (Parvalbumin) [2]
1 | CCN(CC)S(=O)(=O)c1ccc(OC)c(N2CCN(C(=O)c3ccc(F)cc3C(F)(F)F)CC2)c1 [BT13] | significant negative impact | – | – | –
2 | C=C[C@@]1(C)CC(=O)[C@]2(O)[C@@]3(C)[C@@H](O)CCC(C)(C)[C@@H]3[C@H](O)[C@H](OC(C)=O)[C@@]2(C)O1 [Forskolin] | – | 3.14 | – | –
3 | CC(=O)C(=O)[O-].[Na+] [Sodium pyruvate] | significant effect | 17.1 | positive impact | contribute to PVALB expression
